From US6894061B2, “Substituted dihydrophenanthridinesulfonamides” (Wyeth, priority 2002, dated 2005) come the findings set out here.

Molecules are shown by their SMILES. Bounds are passed on as bounds.

One data set relates to creatine kinase. Description: Creatine kinase (CK) test procedure in Ad5-wt-ERα infected HAECT-1 cells. It counts as cell-based, human. The conditions noted are these: Homo sapiens, HAECT1, Ad5-wt-ERα infected HAECT-1 cells; for Emax at 10 µM / Emax: read-out: Creatin Kinase Efficacy (%); for EC50: read-out: Creatin Kinase EC50. On the procedure:
(§1) After four hours, cells were washed with EBM-BSA and incubated overnight in the same medium. Following overnight incubation, cells were washed with EBM-BSA and infected for 2 hours with 6 mL of a 1:10 dilution of Ad5-3x(NFκB).Luc virus (Adenovirus luciferase expression vector driven by 3 repeats of the MHC NFκb site 5′ to the thymidine kinase promoter) in EBM-BSA. After two hours, cells were washed and incubated at 34° C. for 1 hour. […] Control (no ER infection) cells were processed as above without Ad5-wt-hERα virus infection.
(§2) ERα infected HAECT-1 cells or control cells were thawed, diluted 42× in warm EBM-BSA, plated into 96-well plates at 0.1 mL/well and incubated for 4 hours at 34° C. Test compounds were added to the cells as 2× stocks in EBM-BSA containing 2 ng/mL IL-1β (R&D Systems) and the 96-well plates were returned to the incubator (34° C.). After 15-20 hours, 100 μL aliquots of media were removed from the cells and assayed for IL-6 content using a BioSource human IL-6 ELISA Kit. Cells were subsequently washed with 300 μL of Dulbecco's phosphate buffered saline and lysed in 50 μL of Cell Culture Lysis Reagent (Promega). Luciferase was determined on a Wallac Victor^2 Luminometer (Gaithersburg, Md.) using 10 μL of lysate and mixing with 100 μL of Promega Luciferase Assay reagent. Creatine kinase was determined from the rate of increase in A340 following addition of 100 μL of CK assay reagent (Sigma, cat. No 47-10) to the remainder of the cell lysate.
(§3) For IC50 and EC50 calculations, mean IL-6, luciferase or CK values versus log10 of the compound concentration were fitted to a four parameter logistic equation. The IC50/EC50 value, ‘Hill slope’, upper and lower limits of the curve were iteratively estimated.

The next data set deals with ER/NF-κB. As to the kind of experiment: ER/NF-κB luciferase reporter in Ad5-wt-ERα infected HAECT-1 cells. It counts as cell-based, human. The conditions noted are these: Homo sapiens, HAECT1, IL-1β; for Emax: read-out: ER/NFκB Efficacy (%)*; for IC50: read-out: ER/NFκB IC50. On the procedure:
as §1, §2, §3
In general terms: In a reporter assay the amount or activity of a reporter protein is the signal.

In general, melting point refers to the temperature of the solid-liquid transition. With `CCCCC1c2ccccc2-c2ccccc2N1S(=O)(=O)c1ccc(O)cc1` (stereo not drawn) [Example 7, 4-[(6-Butylphenanthridin-5(6H)-yl)sulfonyl]phenol], the melting point was 149 to 151 °C. For the same molecule, the Emax at 10 µM in the data set with creatine kinase was under 35%. Also, in the data set with ER/NF-κB, the Emax stood at 7% and the IC50 worked out at 470 nM.

Take `CCCCC1c2ccccc2-c2cc(Br)ccc2N1S(=O)(=O)c1ccc(O)cc1` (stereo not drawn) [Example 8, 4-[(2-Bromo-6-butylphenanthridin-5(6H)-yl)sulfonyl]phenol]: the melting point is 178 to 180 °C. Further, in the data set on creatine kinase, the Emax at 10 µM is under 35%. Also, in the data set with ER/NF-κB, the Emax stood at 89% and the IC50 stood at 672 nM.

For orientation: EC50 means the concentration that produces a half-maximal response. On to `O=S(=O)(c1ccc(O)cc1)N1c2ccccc2-c2ccccc2C1c1ccccc1` (stereo not drawn) [Example 9, 4-[(6-Phenylphenanthridin-5(6H)-yl)sulfonyl]phenol], for which the melting point lay within 217 to 220 °C. For the same molecule, in the data set on creatine kinase, the EC50 was found to be 455 nM and the Emax turned out to be 26%. Moreover, in the data set with ER/NF-κB, the Emax stood at 89% and the IC50 came to 125 nM.

Regarding `O=S(=O)(c1ccc(O)cc1)N1c2ccc(Br)cc2-c2ccccc2C1c1ccccc1` (stereo not drawn) [Example 12, 4-[(2-Bromo-6-phenylphenanthridin-5(6H)-yl)sulfonyl]phenol], the melting point lay in the range of 262 to 265 °C. The Emax at 10 µM in the data set on creatine kinase is under 35%. Also, in the data set on ER/NF-κB, the Emax was determined as 93% and the IC50 came to 682 nM.

For `O=S(=O)(c1ccc(O)c(Br)c1)N1c2ccc(Br)cc2-c2ccccc2C1c1ccccc1` (stereo not drawn) [Example 13, 2-Bromo-4-[(2-bromo-6-phenylphenanthridin-5(6H)-yl)sulfonyl]phenol], the melting point lay in the range of 237 to 239 °C. The Emax at 10 µM with creatine kinase was under 35%. Further, the IC50 in the data set with ER/NF-κB is over 10000 nM.

In the case of `CC(C)(C)C1c2ccccc2-c2ccccc2N1S(=O)(=O)c1ccc(O)cc1` (stereo not drawn) [Example 14, 4-[(6-tert-Butylphenanthridin-5(6H)-yl)sulfonyl]phenol], the melting point lay in the range of 192 to 194 °C. In the data set on creatine kinase, the EC50 worked out at 757 nM and the Emax amounted to 50%. Moreover, in the data set with ER/NF-κB, the Emax is 105% and the IC50 is 108 nM.

In turn, `CC(C)(C)[C@@H]1c2ccccc2-c2ccccc2N1S(=O)(=O)c1ccc(O)cc1` [Example 15, 4-{[(R)-6-tert-Butylphenanthridin-5(6H)-yl]sulfonyl}phenol] displayed a melting point of 187 to 189 °C. The Emax at 10 µM with creatine kinase was under 35%. In the data set with ER/NF-κB, the Emax came out at 99% and the IC50 is 16 nM.

`CC(C)(C)[C@H]1c2ccccc2-c2ccccc2N1S(=O)(=O)c1ccc(O)cc1` [Example 16, 4-{[(S)-6-tert-Butylphenanthridin-5(6H)-yl]sulfonyl}phenol] gave a melting point of 187 to 189 °C. In the data set with creatine kinase, the 50% effective concentration (EC50) was found to be 3160 nM and the Emax is 15%. For the same molecule, in the data set with ER/NF-κB, the Emax is 89% and the IC50 came out at 2280 nM.

As for `CC(C)(C)C1c2ccccc2-c2cc(Br)ccc2N1S(=O)(=O)c1ccc(O)cc1` (stereo not drawn) [Example 17, 4-[(2-Bromo-6-tert-butylphenanthridin-5(6H)-yl)sulfonyl]phenol], the melting point is 245 to 247 °C. Also, the Emax at 10 µM in the data set with creatine kinase was under 35%. In the data set on ER/NF-κB, the Emax worked out at 76% and the IC50 amounted to 58 nM.

For the molecule `CC1c2ccccc2-c2ccccc2N1S(=O)(=O)c1ccc(O)c(O)c1` (stereo not drawn) [Example 23, 4-[(6-Methylphenanthridin-5(6H)-yl)sulfonyl]benzene-1,2-diol], the melting point lay in the range of 163 to 165 °C. Also, the Emax at 10 µM in the data set with creatine kinase is under 35%. The IC50 in the data set with ER/NF-κB was over 10000 nM.

As for `CC1c2ccccc2-c2ccccc2N1S(=O)(=O)c1ccc(O)c(CO)c1` (stereo not drawn) [Example 26, 2-(Hydroxymethyl)-4-[(6-methylphenanthridin-5(6H)-yl)sulfonyl]phenol], the melting point lay in the range of 182 to 184 °C. Further, in the data set on creatine kinase, the Emax at 10 µM was under 35%. Besides, the IC50 in the data set on ER/NF-κB was over 10000 nM.

As for `CCC1c2ccccc2-c2cc(-c3cccc(O)c3)ccc2N1S(=O)(=O)c1ccc(O)cc1` (stereo not drawn) [Example 30, 3-{6-Ethyl-5-[(4-hydroxyphenyl)sulfonyl]-5,6-dihydrophenanthridine-2-yl}phenol], the melting point was 105 °C. The Emax at 10 µM in the data set on creatine kinase is under 35%. For the same molecule, in the data set with ER/NF-κB, the Emax came to 76% and the IC50 came to 53 nM.

`CCC1c2ccccc2-c2cc(-c3cccc4c3oc3ccccc34)ccc2N1S(=O)(=O)c1ccc(O)cc1` (stereo not drawn) [Example 31, 4-[(2-Dibenzo[b,d]furan-4-yl-6-ethylphenanthridin-5(6H)-yl)sulfonyl]phenol] yielded a melting point of 218 to 220 °C. In addition, the Emax at 10 µM in the data set with creatine kinase was under 35%. Also, in the data set on ER/NF-κB, the Emax was 108% and the IC50 was found to be 254 nM.

For the molecule `CC1c2cc(F)ccc2-c2ccccc2N1S(=O)(=O)c1ccc(O)cc1` (stereo not drawn) [Example 32, 4-[(8-Fluoro-6-methylphenanthridin-5(6H)-yl)sulfonyl]phenol], the melting point was 188 °C. In addition, in the data set with creatine kinase, the EC50 was 302 nM and the Emax worked out at 26%. Moreover, in the data set with ER/NF-κB, the Emax came to 96% and the IC50 was determined as 96 nM.

Molecule `Cc1cc(S(=O)(=O)N2c3ccccc3-c3ccc(F)cc3C2C)ccc1O` (stereo not drawn) [Example 35, 4-[(8-Fluoro-6-methylphenanthridin-5(6H)-yl)sulfonyl]-2-methylphenol] had a melting point of 196 °C. In addition, in the data set on creatine kinase, the Emax at 10 µM is under 35%. In addition, in the data set with ER/NF-κB, the Emax was 94% and the IC50 was found to be 707 nM.

`CC1c2ccc(O)cc2-c2ccccc2N1S(=O)(=O)c1ccc(O)cc1` (stereo not drawn) [Example 36, 5-[(4-Hydroxyphenyl)sulfonyl]-6-methyl-5,6-dihydrophenanthridin-9-ol] returned a melting point of 212 °C. The Emax at 10 µM in the data set with creatine kinase is under 35%. Further, in the data set on ER/NF-κB, the Emax came out at 60% and the IC50 was 690 nM.

The molecule `Cc1cc(S(=O)(=O)N2c3ccccc3-c3cccc(O)c3C2C)ccc1O` (stereo not drawn) [Example 38, 5-[(4-Hydroxy-3-methylphenyl)sulfonyl]-6-methyl-5,6-dihydrophenanthridin-7-ol] had a melting point of 258 °C. For the same molecule, the Emax at 10 µM with creatine kinase is under 35%. The IC50 in the data set on ER/NF-κB is over 10000 nM.

On to `CCC1c2cc(F)ccc2-c2ccccc2N1S(=O)(=O)c1ccc(O)cc1` (stereo not drawn) [Example 40, 4-[(6-Ethyl-8-fluorophenanthridin-5(6H)-yl)sulfonyl]phenol], for which the melting point is 151 °C. Further, the Emax at 10 µM in the data set with creatine kinase is under 35%. Moreover, in the data set with ER/NF-κB, the Emax was 99% and the IC50 was 27 nM.

The molecule `CCC1c2cc(F)ccc2-c2ccccc2N1S(=O)(=O)c1ccc(O)c(C)c1` (stereo not drawn) [Example 41, 4-[(6-Ethyl-8-fluorophenanthridin-5(6H)-yl)sulfonyl]-2-methylphenol] returned a melting point of 181 °C. Besides, in the data set on creatine kinase, the concentration giving a half-maximal response (EC50) worked out at 429 nM and the Emax came out at 24%. Besides, in the data set on ER/NF-κB, the Emax amounted to 75% and the IC50 stood at 815 nM.

Take `CCC1c2c(C)cccc2-c2ccccc2N1S(=O)(=O)c1ccc(O)cc1` (stereo not drawn) [Example 42, 4-[(6-ethyl-7-methylphenanthridin-5(6H)-yl)sulfonyl]phenol]: the melting point was in the range of 167 to 169 °C. In the data set with creatine kinase, the Emax at 10 µM is under 35%. Further, in the data set on ER/NF-κB, the Emax came out at 99% and the IC50 was 83 nM.
